Positions of bridges follow the written chain, without caps; N, C: chain ends. Non-standard residues stand in square brackets, D forms with d. Residues, ends and D or L forms follow the SMILES beside them. *: point of attachment. hPhe(3-Cl-4-CF3) = N[C@@H](CCc1ccc(C(F)(F)F)c(Cl)c1)C(=O)O; hPhe(3-F,4-CF3) = N[C@@H](CCc1ccc(C(F)(F)F)c(F)c1)C(=O)O; NEtPhe(4-Cl) = CCN[C@@H](Cc1ccc(Cl)cc1)C(=O)O; NMePhe(4-Cl) = CN[C@@H](Cc1ccc(Cl)cc1)C(=O)O; NMePhe(2-Cl) = CN[C@@H](Cc1ccccc1Cl)C(=O)O; NMeGly(cPent) = CN[C@H](C(=O)O)C1CCCC1; Phe(3-I) = N[C@@H](Cc1cccc(I)c1)C(=O)O; NMeCha = CN[C@@H](CC1CCCCC1)C(=O)O; Ala(cPr) = N[C@@H](CC1CC1)C(=O)O; NMeChg = CN[C@H](C(=O)O)C1CCCCC1; NMeT = CN[C@H](C(=O)O)[C@@H](C)O; NMeD = CN[C@@H](CC(=O)O)C(=O)O; NMeL = CN[C@@H](CC(C)C)C(=O)O; NMeV = CN[C@H](C(=O)O)C(C)C; d(β3hA) = C[C@@H](N)CC(=O)O; NMeA = CN[C@@H](C)C(=O)O; NMeAib = CNC(C)(C)C(=O)O; Nle = CCCC[C@H](N)C(=O)O; Piperidide = C1CCN(*)CC1; Pyrrolidide = C1CCN(*)C1; Ac5c = NC1(C(=O)O)CCCC1; Aze = O=C(O)[C@@H]1CCN1; Aib = CC(C)(N)C(=O)O; Sar = CNCC(=O)O

T1 sequence (P01116 1-188 isoform P01116-2 G12D): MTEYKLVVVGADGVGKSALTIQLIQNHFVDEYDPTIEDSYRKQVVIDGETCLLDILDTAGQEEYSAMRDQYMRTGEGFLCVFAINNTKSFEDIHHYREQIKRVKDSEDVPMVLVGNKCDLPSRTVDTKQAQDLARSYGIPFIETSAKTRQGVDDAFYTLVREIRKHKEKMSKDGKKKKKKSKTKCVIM

The assay addresses T1, Kras and SOS1 (biotin-tagged human Kras loaded with GDP, His-tagged human SOS1) (Homo sapiens, UniProt P01116, G12D).
T1 construct: made in house; host or cells: E. coli (stated for Kras only)
Description: Protein-protein interaction inhibition between Kras and SOS1 (KrasGl2D-SOS PPI) using AlphaScreen. Format: binding. As to conditions: AlphaScreen; biotin-tagged human Kras loaded with GDP, His-tagged human SOS1; read-out: KRAS G12D-SOS PPI IC50. The essentials:
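Energy transfer from nickel-chelate donor beads bound to His-SOS1 to streptavidin acceptor beads bound to biotin-Kras, expressed in E. coli and loaded with GDP after purification, was monitored. Donors were excited at 680 nm; singlet oxygen reaching acceptors gave emission read at 520-620 nm.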
In the case of `CC[C@H](C)[C@@H]1NC(=O)[C@H](CC(C)C)N(C)C(=O)C[C@@H](C(=O)N2CCCCC2)NC(=O)[C@H](C(C)C)N(C)C(=O)C2(CCCC2)NC(=O)[C@@H]2CCCN2C(=O)[C@H](CCc2ccc(C(F)(F)F)c(Cl)c2)NC(=O)CN(C)C(=O)[C@H](CC2CCCCC2)N(C)C(=O)CN(C)C(=O)CN(C)C1=O` [Compound 417] ([NMeL]I[Sar][Sar][NMeCha][Sar][hPhe(3-Cl-4-CF3)]P[Ac5c][NMeV]D-Piperidide; lactam N-11), the IC50 – broadly, the midpoint of a concentration-inhibition curve – amounted to 15 nM. The value for `CC[C@H](C)[C@@H]1NC(=O)[C@H](C(C)C)N(C)C(=O)C[C@@H](C)NC(=O)[C@H](CC(C)C)N(C)C(=O)C2(CCCC2)NC(=O)[C@H](CC(C)C)N(C)C(=O)[C@H](CCc2ccc(C(F)(F)F)c(F)c2)NC(=O)CN(C)C(=O)[C@H](Cc2ccc(Cl)cc2)N(C)C(=O)[C@@H]2CCN2C(=O)CN(C)C1=O` [Compound 418] (cyclo([Ac5c][NMeL][d(β3hA)][NMeV]I[Sar][Aze][NMePhe(4-Cl)][Sar][hPhe(3-F,4-CF3)][NMeL])) was 17 nM; that for `CC(C)C[C@H]1C(=O)N[C@@H](CC2CC2)C(=O)N(C)CC(=O)N(C)CC(=O)N(C)[C@@H](CC2CCCCC2)C(=O)N(C)CC(=O)N[C@@H](CCc2ccc(C(F)(F)F)c(Cl)c2)C(=O)N2CCC[C@H]2C(=O)NC2(CCCC2)C(=O)N(C)[C@@H](C(C)C)C(=O)N(C)[C@H](C(=O)N2CCCCC2)CC(=O)N1C` [Compound 421] ([NMeL][Ala(cPr)][Sar][Sar][NMeCha][Sar][hPhe(3-Cl-4-CF3)]P[Ac5c][NMeV][NMeD]-Piperidide; lactam N-11) was 10 nM; that for `CCCC[C@@H]1NC(=O)[C@H](Cc2cccc(I)c2)NC(=O)CN(C)C(=O)[C@H](Cc2ccc(Cl)cc2)N(CC)C(=O)CN(C)C(=O)CN(C)C(=O)[C@H]([C@@H](C)CC)NC(=O)[C@H](CC(C)C)N(C)C(=O)C[C@@H](C(=O)N2CCCCC2)N(C)C(=O)[C@H](CC(C)C)NC(=O)C(C)(C)N(C)C1=O` [Compound 423] ([NMeL]I[Sar][Sar][NEtPhe(4-Cl)][Sar][Phe(3-I)][Nle][NMeAib]L[NMeD]-Piperidide; lactam N-11) was 64 nM. The value for `CC[C@H](C)[C@@H]1NC(=O)[C@H](C)N(C)C(=O)C[C@@H](C(=O)N2CCCC2)N(C)C(=O)[C@H](C(C)C)N(C)C(=O)C(C)(C)NC(=O)[C@H](Cc2ccccc2Cl)N(C)C(=O)[C@H](CCc2ccc(C(F)(F)F)c(Cl)c2)NC(=O)CN(C)C(=O)[C@H](CC2CCCCC2)N(C)C(=O)CN(C)C(=O)CN(C)C1=O` [Compound 426] ([NMeA]I[Sar][Sar][NMeCha][Sar][hPhe(3-Cl-4-CF3)][NMePhe(2-Cl)][Aib][NMeV][NMeD]-Pyrrolidide; lactam N-11) was 8.7 nM; that for `CC[C@H](C)[C@@H]1NC(=O)[C@H](CC(C)C)N(C)C(=O)C[C@@H](C(=O)N2CCCCC2)N(C)C(=O)[C@H](C2CCCCC2)N(C)C(=O)C2(CCCC2)NC(=O)[C@@H]2CCCN2C(=O)[C@H](CCc2ccc(C(F)(F)F)c(Cl)c2)NC(=O)CN(C)C(=O)[C@H]([C@@H](C)O)N(C)C(=O)CN(C)C(=O)CN(C)C1=O` [Compound 427] ([NMeL]I[Sar][Sar][NMeT][Sar][hPhe(3-Cl-4-CF3)]P[Ac5c][NMeChg][NMeD]-Piperidide; lactam N-11) was 0.71 nM; that for `CC[C@H](C)[C@@H]1NC(=O)[C@H](C)N(C)C(=O)C[C@@H](C)NC(=O)[C@H](C2CCCC2)N(C)C(=O)C2(CCCC2)NC(=O)[C@@H]2CCCN2C(=O)[C@H](CCc2ccc(C(F)(F)F)c(Cl)c2)NC(=O)CN(C)C(=O)[C@H](CC(C)C)N(C)C(=O)[C@@H]2CCCN2C(=O)CN(C)C1=O` [Compound 429] (cyclo([Ac5c][NMeGly(cPent)][d(β3hA)][NMeA]I[Sar]P[NMeL][Sar][hPhe(3-Cl-4-CF3)]P)) was 99 nM.

The record behind these values is patent US12371454B2, “Cyclic peptide compound having Kras inhibitory action” (priority 2019, dated 2025).
